Data on four compounds can be found in patent US20230125429A1 (priority 2017, published 2023).

The subject of series [1] is HepG2-GFP orthotopic xenograft tumor. To be noted: Triptonide 25 mg/kg by gavage every other day; Sorafenib intraperitoneal; n=10 per cohort.
Series [2] has as its system Par2 knockout keratinocytes. In words: Growth of Par2 knockout primary keratinocytes, one hour treatment. To be noted: as high as 800 nM, one hour. It is filed as cell-based, mouse.
Series [3] concerns mimosine treated HepG2 cells. Nature of the series: Cell cycle analysis by flow cytometry (PI staining). It is filed as cell-based, human. To be noted: 2 µM, by 24 hours. For orientation: A flow cytometer gives signals particle by particle.
The subject of series [4] is Par2 knockout keratinocytes. Nature of the series: Growth of Par2 knockout primary keratinocytes, continuous exposure. As to conditions: as low as 1.25 nM (lowest examined). Format: cell-based, mouse. The method, then:
For the neonatal mouse keratinocyte culture, the dorsal skins of neonatal wild type or Par2 knockout mice were harvested from wild type or Par2 knockout mice, respectively. The skins were incubated overnight at 4° C. in a 0.25% solution of trypsin (Life Technologies, USA) in phosphate-buffered saline (PBS) without calcium and magnesium. The epidermis was then separated from the adjoining dermis, and the dispersed epidermal cells were collected in suspension Eagle’s minimal essential medium (SMEM) (Life Technologies, USA) supplemented with glutamine and 8% calcium free fetal calf serum (FCS) (Life Technologies, USA). The cells were plated onto individual wells of 48 well plates (Corning, USA), which were pre-coated with collagen (Life Technologies, USA), at a density of 70,000 cells/well. The cell cultures were kept for 12 hours at 34° C. in a humidified incubator containing 8% CO2. […]
For primary hepatocytes, the seeded cells were monitored for up to 48 hours either without any treatment (as a control) or with various types of treatments. For primary keratinocytes, cells in 48-well plates were monitored either without any treatment or with various types of treatment for up to 96 hours. For HepG2, cells 96-well plates were monitored either without any treatment or with various types of treatments for up to 48 hours. […]

Another series relates to ERK phosphorylation. Nature of the series: ERK phosphorylation in HepG2 cells (Western blot). As to conditions: serum-starved HepG2; trypsin 50 nM, Triptolide 1 µM, Triptonide 1 µM; 0-40 minutes. It is filed as cell-based, human. In general terms: A western blot detects proteins with antibodies after separation by electrophoresis.
Series [5] concerns wild-type keratinocytes. Nature of the series: Growth of wild-type primary keratinocytes, continuous exposure. It is filed as cell-based, mouse. As to conditions: as low as 1.25 nM (lowest examined), continuous exposure. The procedure: For the neonatal mouse keratinocyte culture, the dorsal skins of neonatal wild type or Par2 knockout mice were harvested from wild type or Par2 knockout mice, respectively. The skins were incubated overnight at 4° C. in a 0.25% solution of trypsin (Life Technologies, USA) in phosphate-buffered saline (PBS) without calcium and magnesium. The epidermis was then separated from the adjoining dermis, and the dispersed epidermal cells were collected in suspension Eagle’s minimal essential medium (SMEM) (Life Technologies, USA) supplemented with glutamine and 8% calcium free fetal calf serum (FCS) (Life Technologies, USA). The cells were plated onto individual wells of 48 well plates (Corning, USA), which were pre-coated with collagen (Life Technologies, USA), at a density of 70,000 cells/well. The cell cultures were kept for 12 hours at 34° C. in a humidified incubator containing 8% CO2. Low calcium (0.05 mM) S-MEM, containing 8% FCS was then added to initiate the culture. The culture medium was changed every 2 days.
For primary hepatocytes, the seeded cells were monitored for up to 48 hours either without any treatment (as a control) or with various types of treatments. For primary keratinocytes, cells in 48-well plates were monitored either without any treatment or with various types of treatment for up to 96 hours. For HepG2, cells 96-well plates were monitored either without any treatment or with various types of treatments for up to 48 hours. The IncuCyte Zoom was set to take a set of images at fixed locations (4 per well for 96-well plates and 16 per well for 48-well plates and 12-well plates) every three hours.
To address this question, we took a genetic approach.

Series [6] concerns wild-type keratinocytes. Nature of the series: Growth of wild-type primary keratinocytes, short-term treatment. Format: cell-based, mouse. To be noted: as high as 800 nM, one hour.
Series [7] deals with mimosine-treated HepG2 cells. Nature of the series: One-hour treatment of mimosine-treated HepG2 cells, live cell imaging. To be noted: one-hour treatment. Format: cell-based, human.
A further series deals with HepG2 cells. In words: Blocking the AC-cAMP-PKA pathway, growth of HepG2 cells. Format: cell-based, human. To be noted: Triptonide 1 µM, Vidarabine 10 µM, PKI 2.5 µM, alone or combined.
In the next series the test system is PKA. Nature of the series: Measurement of PKA activity in HepG2 cells. Format: cell-based, human. To be noted: one-hour treatment in regular medium (Trypsin 50 nM, Triptonide 1 µM); hour 9 and 10 after mimosine.
The next series has as its system cAMP. In words: Measurement of cAMP levels in HepG2 cells. Format: cell-based, human. As to conditions: treatment 2 hours after mimosine; Trypsin 50 nM, Triptonide 1 µM; serum-free. (Cyclic AMP is a second messenger, typically raised through Gs and lowered through Gi signalling.)

For the compound `CNC(=O)c1cc(Oc2ccc(NC(=O)Nc3ccc(Cl)c(C(F)(F)F)c3)cc2)ccn1` [Sorafenib, reference compound], the “tumor specific (GFP) signals” value in series [1] is listed as “lower intensities of the tumor specific signals at all time points”.

Take `CC(C)[C@]12O[C@H]1[C@@H]1O[C@]13[C@]1(O[C@H]1C[C@H]1C4=C(CC[C@@]13C)C(=O)OC4)[C@@H]2O` [Triptolide, reference compound]: in series [2], the “growth inhibitory effect on Par2 knockout keratinocytes” value is listed as “did not have any significant growth inhibitory effect”. Also, the “sub-G1 (<2N, apoptotic) population” value in series [3] was “significant peaks of the sub-G1”. In addition, in series [4], the “lethality for Par2 knockout keratinocytes” value was “complete lethality”. In addition, the “levels of phosphorylated ERK” value with ERK phosphorylation is “no significant effects”. For the same compound, in the series on wild-type keratinocytes [5], the “lethality for wild-type keratinocytes” value is listed as “complete lethality”. Moreover, the “growth inhibitory effect on wild-type keratinocytes” value in the series with wild-type keratinocytes [6] is “did not have any significant growth inhibitory effect”. The “growth and mitotic catastrophe” value in series [7] (1 µM, regardless of time) is reported as “growth inhibitory, but did not cause mitotic catastrophe”. In [7] (2 µM, at 0 and 2 hours after mimosine treatment), the “growth and chromatin condensation” value is on record as “not only growth inhibitory, but also caused chromatin condensation”.

As for `Nc1ncnc2c1ncn2[C@@H]1O[C@H](CO)[C@@H](O)[C@@H]1O` [Vidarabine, reference compound], the “effect on growth of HepG2 cells” value in the series on HepG2 cells is on record as “no significant effects”.

As to Trypsin, the “levels of phosphorylated ERK” value in the series with ERK phosphorylation was “two-stage increase”. In addition, the “level of PKA activity around G2/M transition” value in the series with PKA is on record as “reduced significantly”. Further, the “levels of cAMP” value in the series on cAMP is “modest and transient elevations”.
